Legend:
SLB-1 = experiment: Effect of CXCR4 antagonist on in vivo growth of SLB-1 tumor in NOG mice; conditions: 7.5×10^7 cells inoculated, KRH-1636 0.14 mg/mouse intraperitoneally every day, 15 days
Protocol: (§1) Using 3 samples of HTLV-1 leukemia derived cell lines [L=Leukemic cell lines: ED-40515(−), MT-1 and TL-Oml], 6 samples of HTLV-1 infected cell lines [IT=infected transformed cell lines: SLB-1, M8116, HUT-102, MT-2, MT-4 and TY9-31MT], 10^7-8 cells/0.5 mL were transplanted to NOG mice and NOD/Shi-scid mice subcutaneously at a left posterior auricle thereof, and to some of them subcutaneously at a gluteal region thereof. Then, the tumor size in the mice, tissue image, and the mice with, and those without, leukemia were chronologically compared for examination, and the relations between these and transcription factors such as NFkB or fluctuation of Tax protein were also analyzed.
(§2) Assuming that effective tumor formation by 10^7 of ED-40515(−) in NOG mice was attributable to active neogenesis of tumoral vessels via CXCR4 of tumor cells, it has been expected that tumor formation would be inhibited as long as there was continuous administration of KRH-1636, a competitive agent of SDF-1 which was a ligand thereof in endothelial cells. However, in the case of ED-40515(−) and SLB-1 (histologically angiotropic) accompanied by bleeding, the mice formed tumors with sizes of 25×18×12 mm and 20×10×18 mm equivalent to those of non-treated group, even though KRH-1636 was intraperitoneally administered every day.

ED-40515(−) = experiment: Effect of CXCR4 antagonist on in vivo growth of ED-40515(−) tumor in NOG mice; conditions: 7.5×10^7 cells inoculated, KRH-1636 0.14 mg/mouse intraperitoneally every day, 15 days
Protocol: as §1, §2

SMILES: C[C@H](NC(=O)[C@H](CCCN=C(N)N)NC(=O)c1ccc(CNCc2ccccn2)cc1)c1cccc2ccccc12 [KRH-1636]
- Remarks (tumor) (SLB-1): progressive large tumor
- Remarks (tumor) (ED-40515(−)): progressive large tumor

From patent US8541033B2, “Production of human antibodies using NOD/SCID/γcnull mice” (Central Institute for Experimental Animals, priority 2000, dated 2013)
